Data reported in patent US20080312167A1, “4'' Amino Linked Macrolides Useful for the Treatment of Microbial Infections” (priority 2005, published 2008).

Tests used:
Assay in all cases: MIC, standard broth dilution method in microtitre
Assay type in all cases: cell-based
Enterococcus faecalis = test system: Enterococcus faecalis
Procedure: (§1) Using a standard broth dilution method in microtitre, compounds were tested for antibacterial activity.
(§2) The MIC (μg/ml) of test compounds against various organisms was determined including: Staphylococcus aureus, Streptococcus pneumoniae, Streptococcus pyogenes, Enterococcus faecalis, Haemophylus influenzae, Moraxella catarrhalis.

Moraxella catarrhalis = test system: Moraxella catarrhalis
Procedure: as §1, §2

[1] = test system: sensitive Staphylococcus aureus
Procedure: as §1, §2

Haemophylus influenzae = test system: Haemophylus influenzae
Procedure: as §1, §2

| Compound | MIC (Enterococcus faecalis) [µg/mL] | MIC (Moraxella catarrhalis) [µg/mL] | MIC [1] [µg/mL] | MIC (Haemophylus influenzae) [µg/mL] |
| --- | --- | --- | --- | --- |
| CC[C@H]1OC(=O)[C@H](C)[C@@H](O[C@H]2C[C@@](C)(OC)[C@@H](NC(=O)CCOCCOCCCc3ccc4c(c3)c(=O)c(C(=O)O)cn4CC)[C@H](C)O2)[C@H](C)[C@@H](O[C@@H]2O[C@H](C)C[C@H](N(C)C)[C@H]2O)[C@](C)(O)C[C@@H](C)CN(C)[C@H](C)[C@@H](O)[C@]1(C)O (single isomer, unassigned) [Example 7] | ≤ 0.125 | ≤ 2 | ≤ 0.5 | – |
| CC[C@H]1OC(=O)[C@H](C)[C@@H](O[C@H]2C[C@@](C)(OC)[C@H](NC(=O)CCOCCOCCCc3ccc4c(c3)c(=O)c(C(=O)O)cn4C3CC3)[C@H](C)O2)[C@H](C)[C@@H](O[C@@H]2O[C@H](C)C[C@H](N(C)C)[C@H]2O)[C@](C)(O)C[C@@H](C)CN(C)[C@H](C)[C@@H](O)[C@]1(C)O (single isomer, unassigned) [Example 9] | – | ≤ 2 | ≤ 0.5 | – |
| 4″(S)—N-(3-{2-[2-(3-Carboxy-7-chloro-1-cyclopropyl-4-oxo-1,4-dihydro-quinolin-6-ylamino)-ethoxy]-ethoxy}-propionyl}-azithromycin [Example 3] | – | – | – | ≤ 0.125 |
| CC[C@H]1OC(=O)[C@H](C)[C@@H](O[C@H]2C[C@@](C)(OC)[C@H](NC(=O)CCOCCOCCCc3ccc4c(c3)c(=O)c(C(=O)O)cn4CC)[C@H](C)O2)[C@H](C)[C@@H](O[C@@H]2O[C@H](C)C[C@H](N(C)C)[C@H]2O)[C@](C)(O)C[C@@H](C)CN(C)[C@H](C)[C@@H](O)[C@]1(C)O (single isomer, unassigned) [Example 4] | – | ≤ 2 | – | – |
| CC[C@H]1OC(=O)[C@H](C)[C@@H](O[C@H]2C[C@@](C)(OC)[C@H](NC(=O)CCOCCOCCCc3ccc4c(c3)c(=O)c(C(=O)O)cn4CCOC)[C@H](C)O2)[C@H](C)[C@@H](O[C@@H]2O[C@H](C)C[C@H](N(C)C)[C@H]2O)[C@](C)(O)C[C@@H](C)CN(C)[C@H](C)[C@@H](O)[C@]1(C)O (single isomer, unassigned) [Example 6] | – | ≤ 2 | ≤ 0.5 | – |
| CC[C@H]1OC(=O)[C@H](C)[C@@H](O[C@H]2C[C@@](C)(OC)[C@@H](NC(=O)CCOCCOCCCc3ccc4c(c3)c(=O)c(C(=O)O)cn4C3CC3)[C@H](C)O2)[C@H](C)[C@@H](O[C@@H]2O[C@H](C)C[C@H](N(C)C)[C@H]2O)[C@](C)(O)C[C@@H](C)CN(C)[C@H](C)[C@@H](O)[C@]1(C)O (single isomer, unassigned) [Example 8] | ≤ 0.125 | ≤ 2 | ≤ 0.5 | – |
